From patent publication US11351151B2, “Compound having anticancer activity and preparation method and application” (3D Medicines (Beijing) Co., Ltd., priority 2016, dated 2022) come the findings set out here.

“And” between values parts separate entries of the source, which are not always exact repeats. Equal values may be shown once.

In general, IC50 refers to the concentration that inhibits the measured activity by half. Low values mean greater potency in that assay, high ones weaker potency in that assay.

One data set deals with NCl-H1703. The experiment in a line: Cell proliferation assay (Alamar Blue). It counts as cell-based. Conditions: for IC50: 144 h, NCl-H1703 (lung cancer cells), 6 days. The gist of the method: (§1)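 Cells seeded at 500–1×10^4/well, allowed 4 h at 37 °C, 5% CO2, then given 9-point compound series (3.16-fold from 30 or 100 μM top). After 6 days, AlamarBlue added 1–4 h and fluorescence read (ex 560/em 590 nm); IC50 from four-parameter nonlinear regression of inhibition versus 0% and 100% controls.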
(In general: The colour change of resazurin is a common sign of viable cells or microbes.)

For a further data set, the system named is HUH6. Put plainly: Cell proliferation assay (Alamar Blue). In kind it is cell-based. Conditions: Homo sapiens, HuH-6, 144 h; HUH6 liver cancer cell line; 6 days. The gist of the method:
as §1

In the next data set the test system is CCRF-CEM. Put plainly: Cell proliferation assay (Alamar Blue). The settings on record: Homo sapiens, 144 h; CCRF-CEM tumor cell line; 6 days. It counts as cell-based. The gist of the method: as §1
A further data set concerns LC-2-ad. The experiment in a line: Cell proliferation assay (Alamar Blue). In kind it is cell-based. The settings on record: Homo sapiens, 144 h; LC-2-ad tumor cell line; 6 days. The gist of the method:
as §1

For the next data set, the system named is SNU182. Put plainly: Cell proliferation assay (Alamar Blue). In kind it is cell-based. The settings on record: Homo sapiens, SNU-182, 144 h; SNU182 liver cancer cell line; 6 days. The gist of the method: as §1
A further data set concerns SNU398. Put plainly: Cell proliferation assay (Alamar Blue). It counts as cell-based. The settings on record: Homo sapiens, SNU-398, 144 h; SNU398 liver cancer cell line; 6 days. The gist of the method: as §1
Another data set has as its system SNU449. Put plainly: Cell proliferation assay (Alamar Blue). In kind it is cell-based. The settings on record: Homo sapiens, SNU-449, 144 h; SNU449 liver cancer cell line; 6 days. The gist of the method:
as §1

Data set [1] is described as follows: Liver homogenate incubation stability study. In kind it is in vitro ADME, SD rat. Conditions: for Residual intermediate: listed as intermediate. Here is the method: The purpose of this example was to investigate the stability of the precursor Linifanib-C12-AA5 (compound 8) and the intermediate Linifanib-C12-Asp (compound 12) in plasma, liver homogenate and spleen homogenate (precursor Linifanib-C12-AA5 metabolizes into the intermediates Linifanib-C12-Asp and Linifanib; the intermediate Linifanib-C12-Asp is further metabolized to form Linifanib), and the metabolites were analyzed quantitatively, and the stability of the incubation system was verified with positive drugs, providing references for compound drug evaluation.
Experimental Procedure • 1. Animal blood was collected, blood samples were placed in EDTA anticoagulation tubes, centrifuged at 3000 g for 15 min at 4° C., plasma was separated, and 2 blood samples were mixed in equal volumes; • 2. Weighed and dissolved a certain amount of Linifanib-C12-AA5/Linifanib-C12-Asp in DMSO:MeOH (2:8), prepared 200 μM mother liquor by purity, and added the compound to the plasma to a final concentration of 2 μg/mL. The organic ratio in the system was not more than 0.5%. • 3. Incubated in a 37° C. water bath and set the sampling points to 0, 0.5, 1, 2, 4, 6, and 8 h. At each sampling point, 100 μL of each sample was added to 300 μL of acetonitrile (with internal standard) for precipitation, centrifuged at 12,000 rpm for 5 min, and 200 μL of supernatant was taken for analysis by LC-MS/MS. • 4. Configured the standard curve to quantify Linifanib, Linifanib-C12-Asp and residual Linifanib-C12-AA5. • 2.2 Linifanib-C12-AA5 and Linifanib-C12-Asp liver/spleen homogenate incubation stability study protocol Test animal • Type: SD rat; Quantity: 2 • Sex: Male; Weight: 200-250 g
Experimental Procedure • 1. Biological analysis method: established the biological analysis method of the compound Linifanib-C12-Asp and Linifanib; • 2. Rat liver/spleen was taken on the day of the experiment, two pieces were cut and mixed, and homogenized with 4 volumes (1 g: 4 mL) phosphate buffer (pH 7.4), and the temperature was controlled to not exceed 10° C. in the homogenization process; quantitative detection of protein, and controlled liver and spleen protein concentration. • 3. Added the drug Linifanib-C12-AA5, Linifanib-C12-Asp to the liver/spleen homogenate to a concentration of 1000 ng/mL, the incubation volume was 1 mL, and controlled the concentration of the organic solvent in the incubation system to not exceed 0.5%. • 4. Incubated in a 37° C. water bath and took 100 μL of samples at 0, 0.5, 1, 2, 4, 6, and 8 h, respectively. After pre-processing the samples with a definite method, the LC-MS/MS analysis was carried out. • 5. Prepared a standard curve with blank liver/spleen homogenate to quantify Linifanib-C12-Asp and Linifanib. 3. Stability Study Results

On to `Cc1ccc(F)c(NC(=O)Nc2ccc(-c3cccc4c3c(N)nn4C(=O)CCCCCNC(=O)C[C@H](N)C(=O)N[C@@H](CCC(=O)N[C@@H](CCC(=O)N[C@@H](CCC(=O)N[C@@H](CCC(=O)N[C@@H](CCC(=O)N[C@@H](CCC(=O)N[C@@H](CCC(=O)N[C@@H](CCC(=O)N[C@@H](CCC(=O)O)C(=O)O)C(=O)O)C(=O)O)C(=O)O)C(=O)O)C(=O)O)C(=O)O)C(=O)O)C(=O)O)cc2)c1` [Compound 6], for which the IC50 with NCl-H1703 was 7.16 µM; in the data set with HUH6, 88.7 µM; with CCRF-CEM it was 90.5 µM; with LC-2-ad, 67.8 µM; with SNU182, greater than 100 µM; with SNU398, greater than 100 µM. For the same molecule, the IC50 in the data set on SNU449 was greater than 100 µM.

On to `Cc1ccc(F)c(NC(=O)Nc2ccc(-c3cccc4c3c(N)nn4C(=O)CCCCCNC(=O)C[C@H](N)C(=O)N[C@@H](CCC(=O)N[C@@H](CCC(=O)N[C@@H](CCC(=O)N[C@@H](CCC(=O)O)C(=O)O)C(=O)O)C(=O)O)C(=O)O)cc2)c1` [Compound 5], for which the IC50 in the data set on NCl-H1703 is 3.43 µM; in the data set on HUH6, 72.2 µM; in the data set on CCRF-CEM, 70.3 µM; in the data set on LC-2-ad, 51.3 µM; in the data set with SNU182, greater than 100 µM; in the data set on SNU398, greater than 100 µM. Further, the IC50 with SNU449 was greater than 100 µM.

Take `Cc1ccc(F)c(NC(=O)Nc2ccc(-c3cccc4c3c(N)nn4C(=O)CCCCCCCCCCCNC(=O)C[C@H](N)C(=O)N[C@@H](CCC(=O)O)C(=O)O)cc2)c1` [Compound 7]: the IC50 in the data set on NCl-H1703 is 0.18 µM; in the data set with HUH6, greater than 100 µM; in the data set with CCRF-CEM, 15 µM; in the data set on LC-2-ad, 54.3 µM; with SNU182 it was greater than 100 µM; in the data set with SNU398, 18.1 µM. Also, the midpoint of inhibition in the data set with SNU449, the IC50, lay at 31.6 µM.

As for `Cc1ccc(F)c(NC(=O)Nc2ccc(-c3cccc4c3c(N)nn4C(=O)CCCCCCCCCCCNC(=O)C[C@H](N)C(=O)N[C@@H](CCC(=O)N[C@@H](CCC(=O)N[C@@H](CCC(=O)N[C@@H](CCC(=O)N[C@@H](CCC(=O)N[C@@H](CCC(=O)N[C@@H](CCC(=O)N[C@@H](CCC(=O)N[C@@H](CCC(=O)O)C(=O)O)C(=O)O)C(=O)O)C(=O)O)C(=O)O)C(=O)O)C(=O)O)C(=O)O)C(=O)O)cc2)c1` [Compound 9], the IC50 with NCl-H1703 is 0.33 µM; in the data set with HUH6, 50.3 µM; with CCRF-CEM, 30.2 µM; with LC-2-ad, 70.5 µM; in the data set with SNU182, greater than 100 µM; with SNU398, 82.7 µM. The molecule further came in with an IC50 with SNU449 of 90 µM.

Regarding `Cc1ccc(F)c(NC(=O)Nc2ccc(-c3cccc4c3c(N)nn4C(=O)CCCCCCCCCCCNC(=O)C[C@H](N)C(=O)O)cc2)c1` [Compound 12], in data set [1] (liver homogenate), the “conversion into Linifanib in liver homogenate” value is recorded as “can be rapidly converted into Linifanib”. Further, the Residual intermediate in data set [1] (liver homogenate, first experiment, 1000 ng/mL added, 0 h) is 1130 ng/mL and 1260 ng/mL; in data set [1] (liver homogenate, first experiment, 1000 ng/mL added, 0.5 h), 1000 ng/mL and 970 ng/mL; in data set [1] (liver homogenate, first experiment, 1000 ng/mL added, 1 h), 1130 ng/mL and 946 ng/mL; in data set [1] (liver homogenate, first experiment, 1000 ng/mL added, 2 h), 1000 ng/mL and 602 ng/mL; in data set [1] (liver homogenate, first experiment, 1000 ng/mL added, 4 h), 294 ng/mL and 456 ng/mL; in data set [1] (liver homogenate, first experiment, 1000 ng/mL added, 6 h), 452 ng/mL and 226 ng/mL. The Residual intermediate in data set [1] (liver homogenate, second experiment, 0 h) is 649 ng/mL and 634 ng/mL; in data set [1] (liver homogenate, second experiment, 0.5 h) it was 452 ng/mL and 469 ng/mL; in data set [1] (liver homogenate, second experiment, 6 h), 309 ng/mL and 340 ng/mL. The IC50 was 0.05 µM in the data set on NCl-H1703; 10.6 µM with HUH6; greater than 30 µM with CCRF-CEM; greater than 30 µM in the data set on LC-2-ad; 19.5 µM in the data set with SNU182; greater than 30 µM in the data set on SNU398. The molecule also displayed an IC50 with SNU449 greater than 30 µM.

Take `Cc1ccc(F)c(NC(=O)Nc2ccc(-c3cccc4c3c(N)nn4C(=O)CCCCCCCCCCCNC(=O)C[C@H](N)C(=O)N[C@@H](CCC(=O)N[C@@H](CCC(=O)N[C@@H](CCC(=O)N[C@@H](CCC(=O)O)C(=O)O)C(=O)O)C(=O)O)C(=O)O)cc2)c1` [Compound 8]: the “conversion of prodrug into active drug, liver versus spleen homogenate” value in data set [1] (FIG. 5, comparison of liver and spleen homogenate) is “more specifically converted into an active drug in the liver”. Further, the IC50 with NCl-H1703 was 0.08 µM; in the data set with HUH6, 28.2 µM; with CCRF-CEM it was greater than 100 µM; with LC-2-ad, 50.2 µM; in the data set on SNU182, greater than 100 µM; in the data set on SNU398, 50.1 µM. In the data set on SNU449, this molecule returned an IC50 of 60.3 µM. Further, in the data set with NCl-H1703 (NCI-H1703 (lung cancer cells)), the “difference of IC50 value versus Linifanib” value is on record as 4 times.

In the case of `Cc1ccc(F)c(NC(=O)Nc2ccc(-c3cccc4[nH]nc(N)c34)cc2)c1` [Linifanib, reference compound], the IC50 in the data set with NCl-H1703 is 0.02 µM; in the data set on HUH6, greater than 30 µM; in the data set with CCRF-CEM it was 5.03 µM; in the data set on LC-2-ad, 4.78 µM; in the data set with SNU182 it was 15.2 µM; in the data set on SNU398, 1.91 µM. The molecule further showed an IC50 in the data set with SNU449 of 10.2 µM.

Consider `Cc1ccc(F)c(NC(=O)Nc2ccc(-c3cccc4c3c(N)nn4C(=O)CCCCCNC(=O)C[C@H](N)C(=O)N[C@@H](CCC(=O)O)C(=O)O)cc2)c1` [Compound 4], for which the IC50 with NCl-H1703 was 1.59 µM; in the data set with HUH6 it was 53.8 µM; in the data set on CCRF-CEM, 51.7 µM; in the data set with LC-2-ad, 36.9 µM; in the data set on SNU182, greater than 100 µM; in the data set with SNU398, 96.5 µM. Besides, in the data set with SNU449, the IC50 was greater than 100 µM.

On to `Cc1ccc(F)c(NC(=O)Nc2ccc(-c3cccc4c3c(N)nn4C(=O)CCCCCNC(=O)C[C@H](N)C(=O)O)cc2)c1` [Compound 11], for which the IC50 in the data set with NCl-H1703 was 0.89 µM; in the data set with HUH6, 46.4 µM; in the data set on CCRF-CEM, 40.7 µM; in the data set on LC-2-ad it was 27.5 µM; with SNU182, greater than 100 µM; with SNU398, 79 µM. Also, the IC50 with SNU449 is greater than 100 µM.
